The test system of test [1] is phosphorylated S6 kinase (S6K). Nature of the test: Western blotting of phosphorylated S6K in BT-474 cells. It is filed as cell-based, human. The settings on record: Example 7, two hours, antimycin 1-0.01 nmol/L, oligomycin 100-1 ng/mL, 2,4-dinitrophenol 300-3 µmol/L. On the procedure:
Human HER2-expressing human breast cancer cell line BT-474 (purchased from American Tissue Culture Collection (ATCC)) was seeded into a 24-multiwell plate (BT-474: 1.2 x 10^5 cells/well) and cultured overnight in a carbon dioxide gas incubator (5% CO2, 37°C). As an energy metabolism inhibitor having a mechanism that differed from that of rotenone, mitochondrial respiratory chain complex III-inhibiting compound antimycin (Wako Pure Chemical Industries) was added to final concentrations of 1, 0.3, 0.1, 0.03 and 0.01 nmol/L while continuing culture. Using another plate, mitochondrial respiratory chain complex V-inhibiting compound oligomycin (Wako Pure Chemical Industries) was added to final concentrations of 100, 30, 10, 3 and 1 ng/mL while continuing culture. In addition, 2,4-dinitrophenol was added to 300, 100, 30, 10 and 3 µmol/L while continuing culture. Two hours after the addition of the agent, the broth was removed and the cells were lysed with an SDS sample buffer (200 µL). Then, this cell lysate was used to perform western blotting analysis. Specifically, this cell lysate (8 µL) was separated by an SDS-PAGE method (gel concentration: 7.5-15%) (Analytical Biochemistry, No. 166, pp. 368-379, 1987) and transferred onto a nitrocellulose membrane (BioRad). Then, an antibody specific to phosphorylated HER2 (Cell signaling technology, Code# 2244), pACC antibody specific to phosphorylated acetyl-CoA carboxylase (ACC) (Cell signaling technology, Code# 3661) and anti-phosphorylated S6K antibody specific to phosphorylated S6 kinase (S6K) (Cell signaling technology, Code# 9209) were used to detect the antibody by chemiluminescent detection with an ECL system (Amersham) to quantify an amount of phosphorylated protein with LAS-1000 plus image analysis device (FUJIFILM).
For orientation: Immunoblotting shows a protein as a band on a membrane.

The test system of test [2] is A549 non-small cell lung cancer cell. Nature of the test: Viable cell count using Cell Counting Kit-F. It is filed as cell-based, human. The settings on record: HER2-expressing cancer, five days of culture. As for the experimental part:
BT-474 breast cancer cell, MDA-MB-453 breast cancer cell, A549 non-small cell lung cancer cell and LNCaP prostate cancer cell were used as human HER2-expressing cells while MDA-MB-231 breast cancer cell and A498 kidney cancer cell (all purchased from ATCC) were used as HER2-nonexpressing cells. Each of the cells used had been seeded into a 96-plate at 500cells/150 µL/well and cultured overnight. Each of the compounds, i.e., antimycin (final concentrations: 1, 0.1, 0.01 and 0.001 µmol/L), 2,4-dinitrophenol (final concentrations: 0.6, 0.2, 0.06 and 0.02 mmol/L), metformin (final concentrations: 25, 5, 1 and 0.2 mmol/L) and AICAR (final concentrations: 25, 5, 1 and 0.2 mmol/L) was diluted with a medium and added for 50 µL/well at a time to the final concentrations mentioned above. Following five days of culture at 37°C in 5% CO2, the cells were counted using Cell Counting Kit-F (Dojindo Laboratories).
Viable cell count using Cell Counting Kit-F was carried out by the following method according to the attached instruction. The supernatant was removed from the 96-well plate after five days of culture. Cell Counting Kit-F diluted 1000-fold with an RPMI medium (phenol red-free, serum-free) was added for 100 µL/well at a time. After 30 minutes of reaction at room temperature, fluorescence (excitation wavelength; 480 nm, fluorescent wavelength; 530 nm) was determined with a fluorescent plate reader.
From the determination results, percentage of the fluorescence level in the wells added with the compound was determined assuming that the fluorescence level in the wells without the addition of the compound (control) is 100%, and the remaining cellular quantity was determined in % with respect to that of the control.
On the technique in general: Tetrazolium assays rely on reduction of a dye to a coloured formazan, in cell work by metabolically active cells.

On to `O=[N+]([O-])c1ccc(O)c([N+](=O)[O-])c1` [2,4-dinitrophenol], for which the “phosphorylation of S6K” value in test [1] was “suppressed”. Also, in test [2], the “minimum concentrations for inhibiting cell proliferation for 50% or more” value is recorded as under 0.02 mmol/L.
Consider antimycin, for which the “phosphorylation of S6K” value in test [1] was “suppressed”. The “minimum concentrations for inhibiting cell proliferation for 50% or more” value in test [2] turned out to be 1e-05 mmol/L.
